Activity calls are given as the source filed them. No cut-off for these calls is given here.

Series [1] deals with CCRF-CEM. Briefly: Cytotoxicity against human CEM cells assessed as cell death incubated for 20 hrs measured by DNS assay. In kind it is functional.
Series [2] relates to HeLa. In words: Cytotoxicity against human HeLa cells assessed as cell death incubated for 20 hrs measured by DNS assay. The format is functional.
Series [3] addresses T1, Histone deacetylase 4 (Homo sapiens, UniProt P56524). Briefly: Inhibition of recombinant human HDAC4 using Boc-Lys (trifluoroacetyl)-AMC as substrate preincubated for 1 hr followed by substrate addition and measured after 1 hr by micro plate reader analysis.
Another series has as its target T2, Histone deacetylase 8 (Homo sapiens, UniProt Q9BY41).
T2 sequence (Q9BY41 whole entry): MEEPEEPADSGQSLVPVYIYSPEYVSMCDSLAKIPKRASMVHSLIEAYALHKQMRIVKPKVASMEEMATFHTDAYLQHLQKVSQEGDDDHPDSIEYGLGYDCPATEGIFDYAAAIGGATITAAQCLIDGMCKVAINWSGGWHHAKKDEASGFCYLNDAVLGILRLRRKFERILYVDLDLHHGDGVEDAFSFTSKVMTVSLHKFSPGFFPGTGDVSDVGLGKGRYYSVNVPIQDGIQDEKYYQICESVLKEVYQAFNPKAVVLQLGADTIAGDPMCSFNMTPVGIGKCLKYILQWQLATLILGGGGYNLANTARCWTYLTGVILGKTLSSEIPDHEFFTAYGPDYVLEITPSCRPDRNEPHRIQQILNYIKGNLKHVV
Briefly: Inhibition of recombinant human HDAC8 using Boc-Lys (trifluoroacetyl)-AMC as substrate preincubated for 1 hr followed by substrate addition and measured after 1 hr by micro plate reader analysis.

Series [4] addresses T3, Histone deacetylase 8 (Homo sapiens) (UniProt Q9BY41).
T3 sequence (whole entry): T2 sequence (Q9BY41 whole entry)
In words: Inhibition of recombinant human HDAC8 using Boc-Lys (trifluoroacetyl)-AMC as substrate ay 35 uM preincubated for 1 hr followed by substrate addition and measured after 1 hr by micro plate reader analysis.

Series [5] deals with T1, Histone deacetylase 4. Briefly: Inhibition of recombinant human HDAC4 using Boc-Lys (trifluoroacetyl)-AMC as substrate ay 35 uM preincubated for 1 hr followed by substrate addition and measured after 1 hr by micro plate reader analysis.
Series [6] relates to SH-SY5Y. In words: Cytotoxicity against human SH-SY5Y cells assessed as cell death incubated for 20 hrs measured by DNS assay. The format is functional.
The test system of series [7] is HS27. In words: Cytotoxicity against human HS-27 cells assessed as cell death incubated for 20 hrs measured by DNS assay. The format is toxicity, cell-based. The conditions noted are these: hs27, 20 h.
Series [8] deals with CCRF-CEM. Briefly: Cytotoxicity against human CEM cells assessed as cell death incubated at 10 uM for 20 hrs measured by DNS assay. In kind it is functional.
Series [9] deals with Ramos. In words: Cytotoxicity against human Ramos cells assessed as cell death incubated at 10 uM for 20 hrs measured by DNS assay. In kind it is functional.
For a further series, the system named is HL-60. Briefly: Cytotoxicity against human HL-60 cells assessed as cell death incubated at 10 uM for 20 hrs measured by DNS assay. In kind it is functional.
For series [10], the system named is HeLa. Briefly: Cytotoxicity against human HeLa cells assessed as cell death incubated at 10 uM for 20 hrs measured by DNS assay. The format is functional.
Series [11] relates to MDA-MB-231. In words: Cytotoxicity against human MDA-MB-231 cells assessed as cell death incubated at 10 uM for 20 hrs measured by DNS assay. The format is functional.
Series [12] concerns SH-SY5Y. In words: Cytotoxicity against human SH-SY5Y cells assessed as cell death incubated at 10 uM for 20 hrs measured by DNS assay. The format is functional.
For series [13], the system named is HS27. In words: Cytotoxicity against human HS-27 cells assessed as cell death incubated at 10 uM for 20 hrs measured by DNS assay. The format is toxicity, cell-based. The conditions noted are these: hs27, 20 h.
Series [14] deals with Ramos. In words: Cytotoxicity against human Ramos cells assessed as cell death incubated for 20 hrs measured by DNS assay. The format is functional.
Series [15] in a line: Selectivity index, ratio of CC50 for human HS-27 cells to CC50 for human CEM cells. The format is functional.
The nature of series [16]: Selectivity index, ratio of CC50 for human HS-27 cells to CC50 for human Ramos cells. The format is functional.
The test system of series [17] is MDA-MB-231. Briefly: Cytotoxicity against human MDA-MB-231 cells assessed as cell death incubated for 20 hrs measured by DNS assay. The format is functional.

T1 sequence (P56524 whole entry): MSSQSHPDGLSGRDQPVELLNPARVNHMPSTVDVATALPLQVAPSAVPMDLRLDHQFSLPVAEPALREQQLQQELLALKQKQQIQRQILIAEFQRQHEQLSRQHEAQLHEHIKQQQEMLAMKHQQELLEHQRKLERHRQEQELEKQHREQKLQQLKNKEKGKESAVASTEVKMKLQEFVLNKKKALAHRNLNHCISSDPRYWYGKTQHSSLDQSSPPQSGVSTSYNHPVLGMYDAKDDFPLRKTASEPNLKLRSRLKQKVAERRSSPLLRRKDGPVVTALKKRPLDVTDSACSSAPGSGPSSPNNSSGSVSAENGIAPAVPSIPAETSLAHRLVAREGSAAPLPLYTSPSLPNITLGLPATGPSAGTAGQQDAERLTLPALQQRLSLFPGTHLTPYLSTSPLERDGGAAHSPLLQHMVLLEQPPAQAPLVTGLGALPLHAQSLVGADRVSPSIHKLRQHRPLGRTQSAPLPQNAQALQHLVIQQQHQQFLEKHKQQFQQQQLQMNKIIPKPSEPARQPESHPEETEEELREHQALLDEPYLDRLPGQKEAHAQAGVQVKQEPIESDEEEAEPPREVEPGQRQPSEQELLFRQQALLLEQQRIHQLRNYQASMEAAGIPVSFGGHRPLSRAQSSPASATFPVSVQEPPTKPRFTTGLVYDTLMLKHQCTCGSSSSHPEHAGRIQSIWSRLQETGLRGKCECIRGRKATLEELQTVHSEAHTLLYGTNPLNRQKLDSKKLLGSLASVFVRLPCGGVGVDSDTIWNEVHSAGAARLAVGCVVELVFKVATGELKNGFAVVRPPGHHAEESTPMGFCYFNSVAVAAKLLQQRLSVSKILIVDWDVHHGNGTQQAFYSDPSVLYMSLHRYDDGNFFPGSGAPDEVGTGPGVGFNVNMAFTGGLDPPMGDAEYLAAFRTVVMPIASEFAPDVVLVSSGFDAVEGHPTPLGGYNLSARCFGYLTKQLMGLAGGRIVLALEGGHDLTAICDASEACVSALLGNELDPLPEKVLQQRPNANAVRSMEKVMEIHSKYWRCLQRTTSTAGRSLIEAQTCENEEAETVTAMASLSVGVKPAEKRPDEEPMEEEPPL

In the case of `O=C(CCCCCCC(=O)Nc1ccccc1)NO` [VORINOSTAT], the CC50 – broadly, the concentration giving 50% cytotoxicity – turned out to be 2.5 µM with CCRF-CEM [1] and 2.8 µM in the series with HeLa [2].

`O=C(COc1ccc2cc(/C=C3/SC(=O)NC3=O)ccc2c1)Nc1ccc(Cl)c(Cl)c1`: the IC50 (in general, the concentration needed to halve the response being measured) on Histone deacetylase 4 [3] is 5.5 µM; on Histone deacetylase 8, more than 50 µM. The inhibition entry (in series [4]; on Histone deacetylase 4 [5]) was “Active” throughout.

Consider `O=C(COc1ccc2cc(/C=C3/SC(=O)NC3=O)ccc2c1)Nc1nc2ccccc2s1`, for which the IC50 worked out at 0.42 µM at Histone deacetylase 4 [3] and 2.7 µM on Histone deacetylase 8. For the same compound, the inhibition result (in series [4]; on Histone deacetylase 4 [5]) was “Active” throughout.

Consider `Cc1cc(NC(=O)COc2ccc3cc(/C=C4/SC(=O)NC4=O)ccc3c2)no1`, for which the values for the IC50 at Histone deacetylase 4 [3] and at Histone deacetylase 8 were 1.7 µM and more than 50 µM, respectively. Further, the inhibition result (in series [4]; at Histone deacetylase 4 [5]) was “Active” in each case.

`O=C(COc1ccc2cc(/C=C3/SC(=O)NC3=O)ccc2c1)Nc1ccc(Br)cc1F`: the IC50 was 1.9 µM on Histone deacetylase 4 [3] and more than 50 µM on Histone deacetylase 8. For the same compound, the CC50 in the series with CCRF-CEM [1] amounted to 40.9 µM; with SH-SY5Y [6], 16 µM; in the series with HS27 [7] it was 57 µM.

Take `O=C(COc1ccc2cc(/C=C3/SC(=O)NC3=O)ccc2c1)Nc1ccccc1`: the IC50 at Histone deacetylase 4 [3] is 2.1 µM; at Histone deacetylase 8 it was 4.5 µM. The inhibition entry (in series [4]; on Histone deacetylase 4 [5]) was “Active” throughout.

Take `Cc1cc(Br)ccc1NC(=O)COc1ccc2cc(/C=C3/SC(=O)NC3=O)ccc2c1`: the figures for the IC50 on Histone deacetylase 4 [3] and on Histone deacetylase 8 were 0.55 µM and 7.4 µM, respectively. The CC50 in the series with HeLa [2] is 9.9 µM; in the series with SH-SY5Y [6], 91.1 µM.

With `O=C(CN1C(=O)S/C(=C/c2ccccn2)C1=O)Nc1nc2ccccc2s1`, on Histone deacetylase 8, the IC50 was determined as 9.3 µM.

Turning to `O=C(COc1ccc2cc(/C=C3/SC(=O)NC3=O)ccc2c1)Nc1cccc(Cl)c1`, the results for the IC50 on Histone deacetylase 4 [3] and on Histone deacetylase 8 were 3.8 µM and more than 50 µM, respectively. Further, the inhibition result (in series [4]; on Histone deacetylase 4 [5]) was “Active” each time. The Activity is on record as more than 40% in the series on CCRF-CEM [8]; more than 40% in the series on Ramos [9]; 27.58% in the series with HL-60; 29.68% in the series on HeLa [10]; 2.84% with MDA-MB-231 [11]; 10.79% with SH-SY5Y [12]. For the same compound, the Activity with HS27 [13] was found to be 22.56%. For the same compound, the cytotoxic concentration (CC50) with CCRF-CEM [1] is 10.6 µM; with Ramos [14], 9.1 µM. Besides, the “Selectivity Index” value in [15] and in series [16] was more than 10 each time.

On to `Cc1ccc(NC(=O)COc2ccc3cc(/C=C4/SC(=O)NC4=O)ccc3c2)cc1Cl`, for which the IC50 on Histone deacetylase 4 [3] is 1.1 µM; on Histone deacetylase 8, more than 50 µM. The inhibition entry (in [4]; at Histone deacetylase 4 [5]) was “Active” throughout.

Turning to `O=C(COc1ccc2cc(/C=C3/SC(=O)NC3=O)ccc2c1)Nc1c(F)cc(F)cc1Br`, the IC50 at Histone deacetylase 4 [3] was 1.1 µM; at Histone deacetylase 8, more than 50 µM. The CC50 with CCRF-CEM [1] worked out at 9.6 µM; in the series on Ramos [14], 9.6 µM; in the series on HeLa [2] it was 10.4 µM; in the series with SH-SY5Y [6] it was 21.8 µM; in the series on HS27 [7], 39.9 µM; in the series with MDA-MB-231 [17], 9.8 µM.

Regarding `O=C(COc1ccc2cc(/C=C3/SC(=O)NC3=O)ccc2c1)Nc1ccc(Br)cc1`, the IC50 at Histone deacetylase 4 [3] was 2.9 µM; on Histone deacetylase 8 it was 16 µM. For the same compound, in the series with HeLa [2], the CC50 came out at 10.1 µM.

In the case of `COc1ccc(NC(=O)COc2ccc3cc(/C=C4/SC(=O)NC4=O)ccc3c2)cc1`, the IC50 on Histone deacetylase 4 [3] is 4.7 µM; on Histone deacetylase 8, more than 50 µM. In addition, the inhibition result (in series [4]; on Histone deacetylase 4 [5]) was “Active” in each case.

For `O=C(COc1ccc2ccccc2c1/C=C1\SC(=O)NC1=O)Nc1ccc([N+](=O)[O-])cc1`, the IC50 on Histone deacetylase 4 [3] is 15 µM; at Histone deacetylase 8, 2.3 µM.

As to `Cc1cccc2sc(NC(=O)COc3ccc4cc(/C=C5/SC(=O)NC5=O)ccc4c3)nc12`, the IC50 came out at 1.2 µM on Histone deacetylase 4 [3] and 5.8 µM at Histone deacetylase 8. Also, the inhibition entry (in series [4]; at Histone deacetylase 4 [5]) was “Active” throughout.

`O=C(COc1ccc2cc(/C=C3/SC(=O)NC3=O)ccc2c1)Nc1ccc(Br)c(Br)c1`: the IC50 on Histone deacetylase 4 [3] was 4.9 µM; on Histone deacetylase 8, more than 50 µM. Besides, the inhibition result (in [4]; on Histone deacetylase 4 [5]) was “Active” in each case.

Take `CCOc1ccc2nc(NC(=O)COc3ccc4cc(/C=C5/SC(=O)NC5=O)ccc4c3)sc2c1`: the IC50 on Histone deacetylase 4 [3] was 3.6 µM; at Histone deacetylase 8, 17 µM. The inhibition result (in [4]; at Histone deacetylase 4 [5]) was “Active” each time.

With `O=C(COc1ccc2cc(/C=C3/SC(=O)NC3=O)ccc2c1)Nc1ccc(F)cc1`, the IC50 at Histone deacetylase 4 [3] turned out to be 1.6 µM; at Histone deacetylase 8 it was 6.6 µM. The inhibition result (in [4]; on Histone deacetylase 4 [5]) was “Active” in each case.

On to `O=C(COc1ccc2cc(/C=C3/SC(=O)NC3=O)ccc2c1)Nc1ccc(F)cc1F`, for which the IC50 on Histone deacetylase 4 [3] was 3.9 µM; on Histone deacetylase 8, more than 50 µM. Further, the inhibition entry (in [4]; at Histone deacetylase 4 [5]) was “Active” throughout.

On to `O=C(COc1ccc2cc(/C=C3/SC(=O)NC3=O)ccc2c1)Nc1cccc(F)n1`, for which the IC50 on Histone deacetylase 4 [3] was 0.84 µM; on Histone deacetylase 8 it was 7.2 µM. Further, the inhibition entry (in series [4]; on Histone deacetylase 4 [5]) was “Active” each time.

For the compound `O=C(COc1ccc2cc(/C=C3/SC(=O)NC3=O)ccc2c1)Nc1cc(Cl)cc(C(F)(F)F)c1`, the IC50 was 4 µM at Histone deacetylase 4 [3] and more than 50 µM on Histone deacetylase 8. Also, the inhibition entry (in series [4]; at Histone deacetylase 4 [5]) was “Active” each time.

Turning to `O=C(COc1ccc2cc(/C=C3/SC(=O)NC3=O)ccc2c1)Nc1cccc(C(F)(F)F)c1`, the half-maximal inhibitory concentration (IC50) on Histone deacetylase 4 [3] is 2.5 µM; on Histone deacetylase 8 it was more than 50 µM. The inhibition entry (in series [4]; on Histone deacetylase 4 [5]) was “Active” throughout. Also, the Activity in the series with CCRF-CEM [8] is recorded as 25.87%; with Ramos [9], more than 40%; in the series with HL-60, 19.55%; in the series with HeLa [10], 39.09%; in the series on MDA-MB-231 [11], 5.96%; in the series with SH-SY5Y [12] it was 0%. Also, in the series on Ramos [14], the CC50 was determined as 6.2 µM. Besides, the “Selectivity Index” value in [16] is more than 10.

`Cc1cccc(NC(=O)COc2ccc3cc(/C=C4/SC(=O)NC4=O)ccc3c2)n1`: the IC50 on Histone deacetylase 4 [3] came out at 1.1 µM; at Histone deacetylase 8 it was 7.5 µM. In addition, the inhibition entry (in series [4]; at Histone deacetylase 4 [5]) was “Active” each time.

`O=C(COc1ccc2cc(/C=C3/SC(=O)NC3=O)ccc2c1)Nc1ccc([N+](=O)[O-])cc1`: the values for the IC50 on Histone deacetylase 4 [3] and on Histone deacetylase 8 were 1.7 µM and 4 µM, respectively. The CC50 in the series with MDA-MB-231 [17] came to 55.8 µM.

Consider `O=C(COc1ccc2cc(/C=C3/SC(=O)NC3=O)ccc2c1)Nc1ccccn1`, for which the figures for the IC50 at Histone deacetylase 4 [3] and on Histone deacetylase 8 were 17 µM and more than 50 µM, respectively. For the same compound, the inhibition entry (in [4]; at Histone deacetylase 4 [5]) was “Active” each time.

Source of the values: ChEMBL document CHEMBL5038586, “Thiazolidinedione "Magic Bullets" Simultaneously Targeting PPARγ and HDACs: Design, Synthesis, and Investigations of their In Vitro and In Vivo Antitumor Effects” (J Med Chem, 2021).
